In patent US20160031958A1, “METHODS AND COMPOSITIONS USEFUL IN MANIPULATING THE STABILITY OF RE1 SILENCING TRANSCRIPTION FACTOR” (OREGON HEALTH & SCIENCE UNIVERSITY, priority 2014, published 2016):
Each block holds one molecule with its values, some of them ahead of it. Where a SMILES comes first, the peptide text is derived from it. The star is where a group is joined. Cbz = O=C(OCc1ccccc1)*

Legend:
endogenous REST protein [1] = assay: Western blot of endogenous REST protein after transfection of CTDSP1 cDNA into HEK293T cells; assay type: cell-based, Human; conditions: HEK293T cells transfected with CTDSP1 cDNA
Experimental: FIG. 6D is an image of a Western blot analysis showing stabilized endogenous REST protein after transfection of CTDSP1 cDNA into HEK293T cells. α-tubulin is the loading control.
Using a REST phospho-specific polyclonal antibody, it was shown that exogenously expressed FLAG-CTDSP1 dephosphorylated these sites in full-length REST (FIG. 6B). Dephosphorylation by CTDSP1 was also observed in the REST reporter peptides as detected by in-gel fluorescence (FIG. 6C).
(§1) Whole cell lysates were prepared and immunoprecipitated following the procedures in Ballas N et al, 2001 supra and Nesti E et al, Mol Biol Cell 15, 4073-4088 (2004); incorporated by reference herein. Western blots were performed by standard procedures using antibodies described below and analyzed using anti IgG conjugated to infrared dyes (ThermoFisher) on an Odyssey® infrared fluorescence imager (LiCor). For detecting phosphorylated REST at S861/S864, cell extracts were prepared lacking phosphatase inhibitors. For phosphatase treatment, 75 μg of total protein was treated with 600 U lambda phosphatase (New England Biolabs) or with buffer alone at 30° C. for 1 h, according to the manufacturer's protocol. […] Infrared fluorescence was detected on the Odyssey® imager (LiCor) in the 700 nm channel. […]

endogenous REST protein [2] = assay: Western blot of endogenous REST protein levels in transfected E12.5 neurospheres; assay type: cell-based; conditions: E12.5 mouse cortical neurospheres after transfection; MG132 4 h; compared to control peptides
Experimental: FIG. 7B is an image of a Western blot showing endogenous REST protein levels in E12.5 neurospheres after transfection. Lane 1, empty vector; lane 2, control (595-694) peptide; lane 3, REST(810-910) S861/864A peptide; lane 4, REST(810-910) WT peptide; lane 5, empty vector with MG132 treated for 4 h. The blot was probed with anti-mouse-REST antibody and anti-tubulin (loading control) antibodies.
There is a significant difference between REST (810-910) compared to control (595-694) peptide (n=5, p=0.0021) and REST(810-910) compared to S861/864A REST(810-910) (n=5, p=0.046). The difference between MG132 and REST(810-910) is not significant (n=5, p=0.7996, Sidak's multiple comparison test, error bars represent 95% confidence interval).
The Examples above used the REST (810-910) reporter as a surrogate substrate for signaling molecules that target S861/S864 on full-length REST. […]
(§2) Whole cell lysates were prepared and immunoprecipitated following the procedures in Ballas N et al, 2001 supra and Nesti E et al, Mol Biol Cell 15, 4073-4088 (2004); incorporated by reference herein. Western blots were performed by standard procedures using antibodies described below and analyzed using anti IgG conjugated to infrared dyes (ThermoFisher) on an Odyssey® infrared fluorescence imager (LiCor). […] Infrared fluorescence was detected on the Odyssey® imager (LiCor) in the 700 nm channel. […]

MEK [3] = assay: Western blot of FLAG-REST protein levels in transfected HEK cells after MEK/ERK inhibitor; assay type: cell-based, Human; conditions: HEK cells transfected with FLAG-REST cDNA, PD184352 or vehicle for 30 min
Experimental: To provide further support for this, unmutated REST (810-910) reporter cDNA was transfected into HEK cells and the peptide expressed in the presence and absence of the MEK/ERK inhibitor PD184352. Treatment with PD184352 caused a modest loss from the band at the position representing unmutated S861/S864 peptide and a reciprocal modest increase in the species representing unphosphorylated peptide (FIG. 5C). […] Accordingly, HEK cells transfected with FLAG-REST cDNA were treated with PD184352 for 30 min and the extracts were analyzed by Western blot.
as §1

MEK [4] = assay: Native gel / in-gel GFP fluorescence of REST (810-910)-GFP reporter peptide phosphorylation in HEK293T cells; assay type: cell-based, Human
Experimental: To interrogate this serine residue, HEK293T cells were transfected with the REST (810-910)-GFP peptide with alanine mutations at S856, S861, and/or S864 as indicated. (S856/864A is S856A/S864A with S861 unmutated; S856/861A is S856A/S861A with S864 unmutated; S861/864A is S861A/S864A with S856 unmutated). […]
Gels were treated the same as in FIG. 5C.
To monitor phosphorylation status of specific REST sites under different circumstances, a cDNA reporter construct that expresses a peptide encoding amino acids 810-to-910 of REST (FIG. 3A) was constructed. Mutant REST (810-910) cDNAs encoding alanine mutations at S861, S864 and at an adjacent site, S856 were also constructed. S856 was minimally phosphorylated in the mass spectrometric analysis described above. […] The constructs also comprise regions that encode N-terminal FLAG and C-terminal eGFP tags (FIG. 3A). These constructs were transfected into HEK cells and expressed. Extracts from the cells were resolved on native gels 24 hours after transfection. The expressed peptides were detected by in-gel GFP fluorescence.
The phosphorylation state of the expressed REST peptides can be visualized by differential migration in native gels due to charge differences. The unmutated S861/S864 REST 810-910 peptide (FIG. 3B, lane 1) migrated predominantly as two distinct bands that were not present upon treatment with lambda phosphatase (FIG. 3B, lane 7). […] The identification of the doubly phosphorylated species was based upon the mobility of an unmutated peptide containing unmutated S861/864 (FIG. 3B, lane 2, S856A), which was not present in samples expressing peptides containing S861A or S864A single mutations (lanes 3 and 4, respectively).
Detection of in gel fluorescence on native 10.5%-14% acrylamide gels (Bio-Rad Cat #345-9949) was performed using the Typhoon imaging system by GE Healthcare Life Science.

Pin1 [5] = target: T1, Pin1 (Rattus norvegicus, UniProt A0ABK0LFD7); assay: Western blot of FLAG-REST protein levels in PC12 tet-on FLAG-REST cells treated with Pin1 inhibitor; assay type: cell-based; conditions: PC12 tet-on FLAG-REST cells induced 24 h with doxycycline, PiB or vehicle for 7.5 h
T1 construct: endogenous in cells; host or cells: PC12 tet-on FLAG-REST cells
T1 sequence (A0ABK0LFD7 1-162): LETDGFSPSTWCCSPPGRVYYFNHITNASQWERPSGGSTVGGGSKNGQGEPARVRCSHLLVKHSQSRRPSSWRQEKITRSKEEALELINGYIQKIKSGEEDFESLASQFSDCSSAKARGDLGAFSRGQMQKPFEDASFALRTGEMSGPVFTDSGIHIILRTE
Experimental: PC12 tet-on FLAG-REST cells were induced 24 h with doxycycline, treated with PiB or vehicle for 7.5 h, and then extracted for analysis. Blots were probed with anti-FLAG (REST) and α-tubulin (loading control).
(§3) HEK293T cells were transfected using Lipofectamine 2000 (Life Technologies) following the manufacturer's instructions. PC12 tet, PC12 tet-on FLAG-REST, and HEK293T cell lines were maintained as described in Ballas N et al 2001 supra. Neurospheres were isolated from E12.5 mouse cortices and cultured as described in Reynolds B A and Weiss S, Science 255, 1707-1710 (1992); incorporated by reference herein in neurobasal media supplemented with 2 mM L-glutamine, 100 U/mL penicillin, […] streptomycin, B27 supplement, 20 ng/mL EGF, and 10 ng/mL FGF-2, all from Life Technologies. Neurospheres were passaged every 3-4 days using Accutase® (Sigma). […]
as §2

Pin1 [6] = target: T2, Pin1 (Homo sapiens, UniProt Q13526); assay: Co-immunoprecipitation of GST-βTrCP with FLAG-REST in HEK293T cells after Pin1 inhibition; assay type: cell-based; conditions: FLAG-REST and GST-βTrCP 48 h, PiB 7.5 h and MG132 4 h
T2 construct: endogenous in cells; host or cells: HEK293T
T2 sequence (Q13526 whole entry): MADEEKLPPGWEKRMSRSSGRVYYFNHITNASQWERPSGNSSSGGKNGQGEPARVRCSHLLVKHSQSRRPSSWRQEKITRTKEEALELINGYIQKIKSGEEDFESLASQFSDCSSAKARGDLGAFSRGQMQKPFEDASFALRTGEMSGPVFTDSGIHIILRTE
Experimental: HEK293T cells were transfected with FLAG-REST (unmutated or S861A/S864A) and GST-βTrCP for 48 h prior to treatment with PiB for 7.5 h and MG132 for 4 h, and then immunoprecipitated. Western blots were probed with anti-FLAG or anti-GST.
as §3, §2

Molecule: CC(C)C[C@@H](C=O)NC(=O)[C@H](CC(C)C)NC(=O)[C@H](CC(C)C)NC(=O)OCc1ccccc1 [MG132] (Cbz-Leu-Leu-Leu-aldehyde)
REST stabilization by CTDSP1, further effect of MG132 (endogenous REST protein [1]): not increased further
Endogenous full-length REST protein levels (endogenous REST protein [2]): did not stabilize the Rest protein further

Molecule: O=C(NOCC1CC1)c1ccc(F)c(F)c1Nc1ccc(I)cc1Cl [PD184352]
FLAG-REST protein levels (Western blot) (MEK [3]): increased FLAG-REST protein levels
EGF-induced phosphorylation of S864 in REST (810-910)-GFP peptide (MEK [4]; HEK293T, PD184352 for 20 min, then recombinant EGF 10 min): inhibited
Bands of doubly phosphorylated and non-phosphorylated REST (810-910) peptide (MEK [4]; REST (810-910) and GFP cDNA co-transfected into HEK cells, presence and absence of PD184352 (FIG. 10)): loss of band representing the doubly phosphorylated peptide
S861/S864 phosphorylation in WT REST peptide (MEK [4]; transfected HEK293T cells, 10 mM PD184352 for 4 hours): partial loss of S861/S864 phosphorylation

REST protein levels (anti-FLAG Western blot) (Pin1 [5]): higher REST protein levels
βTrCP binding to REST (co-immunoprecipitation) (Pin1 [6]): diminished βTrCP binding to REST
Molecule: CCOC(=O)CN1C(=O)c2ccc3c4c(ccc(c24)C1=O)C(=O)N(CC(=O)OCC)C3=O [PiB]

Molecule: EGF: recombinant EGF, upstream activator of ERK
Phosphorylation of S864 in REST (810-910)-GFP peptide (mobility shift) (MEK [4]; HEK293T, recombinant EGF or vehicle 10 min): induces phosphorylation of S864
